Data set [1] relates to hind limb tonic extension seizure (supramaximal electroshock). Nature of the data set: Supramaximal electroshock seizures in rats (single oral dose). Type of data set: in vivo, male Long-Evans rats. The following applies: for ED50: Rattus norvegicus, rats, single oral dose. The text has this:
In this test, male Long-Evans rats (170-190 grams) were orally administered the test drugs as a suspension in olive oil and Methocel 0.5% to 5 or 10 animals per dose. At one and four hours post drug administration each animal received an electroshock (150 milliamp for 0.2 seconds) through corneal electrodes to produce a hind limb tonic extension seizure. The animals were considered protected when the hind limb tonic extensor component was blocked.
On the technique in general: Protection in the maximal electroshock model is a classic sign of anticonvulsant action.

Data set [2] concerns hind limb tonic extensor component of the audiogenic seizure. Nature of the data set: Audiogenic seizure in mice (tonic extensor component), single oral dose. The following applies: for ED50: Mus musculus, po; for activity over time / time of peak effect: single oral dose, 1, 4 and 24 hours. Type of data set: in vivo, male O'Grady strain mice. From the text:
(§1) In this test, male O'Grady strain mice (14-16 grams) especially bred for susceptibility to audiogenic seizures were used as subjects. The audiogenic seizure apparatus consisted of a wooden box enclosing a metal container with two doorbells attached to the upper section. The test consisted of administering the test drug orally as a suspension in 10% olive oil and 90% Methocel (0.5%) to ten animals per dose. […] The test drugs included the present compound, DMHP, DPH, Δ^9 -THC and Phenobarbital.

The test system is the same in data set [3]. Nature of the data set: Audiogenic seizure test in mice (5-day chronic administration). It counts as in vivo, male O'Grady strain mice. The following applies: for ED50: Mus musculus, fifth day, 4 hr post drug administration, read-out: Five day chronic audiogenic seizure test ED50 4 hr; for ED50 / activity in abolishing hind limb tonic extensor component: mice, oral; for activity in abolishing hind limb tonic extensor component: five consecutive days.
Text: as §1
In this test, the animals, diluent and apparatus described in Example 1, above, were used. The experimental procedure consisted of administering the test drugs orally for four days at 0.5 mg./kg. for the present compound and DMHP, and 1.0 and 0.1 mg./kg., respectively, for DPH and phenobarbital. On the fifth day of testing a dose response study (N=10 animals per dose) was initiated to obtain the ED50 for each compound.

Data set [4] relates to all components of audiogenic seizures. Nature of the data set: Audiogenic seizure test in mice (complete seizure protection). Type of data set: in vivo, male O'Grady strain mice. The following applies: single oral dose; for ED50: Mus musculus.
Text: as §1
The animals, diluent, apparatus and experimental procedure described in Example 1 above were used for the present test in mice to determine the complete seizure protection of the various compounds. The compounds tested included the present compound, DMHP and Δ^9 -THC.

The subject of data set [5] is hind limb tonic extension seizure (supramaximal electroshock). Nature of the data set: Supramaximal electroshock test in rats (5-day chronic administration). Type of data set: in vivo, male Long-Evans rats. The following applies: for ED50: Rattus norvegicus, 5-day oral administration, fifth day, 4 hr post drug administration, read-out: ED50 4 hr (50% of animals protected from hind limb tonic extension).

Data set [6] in a line: Side effects (sedation and irritability) on repeated medication. It counts as in vivo. The following applies: within a few days of medication.
Where [7] appears, read: 1 hr, read-out: 1 hr ED50 (50% of animals protected from hindlimb tonic extension).
[8] abbreviates: 4 hr, read-out: 4 hr ED50 (50% of animals protected from hindlimb tonic extension).
Where [9] appears, read: 1 h, mice, single oral dose, 1 hr post drug administration, read-out: 1 hr ED50 (50% of animals protected from hindlimb tonic extension).
Where [10] appears, read: 4 h, mice, single oral dose, 4 hr post drug administration, read-out: 4 hr ED50 (50% of animals protected from hindlimb tonic extension).
[11] abbreviates: 24 h, mice, single oral dose, 24 hr post drug administration, read-out: 24 hr ED50 (50% of animals protected from hindlimb tonic extension).
Setting [12] is: 5-day oral, 2.5 mg./kg. (present compound, DMHP), 30.0 mg./kg. (DPH).
[13] abbreviates: 4 hr post drug administration, read-out: Complete seizure protection 4 hr ED50.

As usually defined, the ED50 is the midpoint of the dose-response relation.

“Also recorded” adds a separate entry of the source. Structures can show the parent of a compound that is named as a salt. Where two headings read alike, the source gives them in different places. Where only a bound is given, the exact number is not on record here.

For `CCC1(c2ccccc2)C(=O)NC(=O)NC1=O` [Phenobarbital], the median effective dose (ED50) in data set [1] (setting [7]) was 22 mg/kg; in data set [1] (setting [8]), 18 mg/kg; in data set [1] (24 hr, read-out: 24 hr ED50), above 40 mg/kg; in data set [2] (setting [9]), 1.9 mg/kg; in data set [2] (setting [10]) it was 0.3 mg/kg; in data set [2] (setting [11]), 6 mg/kg. For the same compound, in data set [3], the ED50 amounted to 0.1 mg/kg. The “activity over time / time of peak effect” value in data set [2] (mice) is reported as “peak effect at four hours post drug administration”. In addition, the “activity in abolishing hind limb tonic extensor component” value in data set [3] is “very active”.

Consider `CCCCCc1cc(O)c2c(c1)OC(C)(C)C1CCC(C)=CC21` (single isomer, unassigned) [Δ9-THC], for which the ED50 in data set [1] (setting [7]) was 53.3 mg/kg; in data set [1] (setting [8]) it was 40.6 mg/kg; in data set [1] (24 hr, read-out: 24 hr ED50), above 200 mg/kg; in data set [2] (setting [9]), 5 mg/kg; in data set [2] (setting [10]) it was 38.8 mg/kg; in data set [2] (setting [11]), above 100 mg/kg. Further, in data set [4] (1 h, one hour data, read-out: Complete seizure protection ED50 (one hour data)), the ED50 came to 6.5 mg/kg. Besides, the “activity over time / time of peak effect” value in data set [2] (mice) is “most active at the one hour period”.

As to `O=C1NC(=O)C(c2ccccc2)(c2ccccc2)N1` [DPH, diphenylhydantoin], the median effective dose (ED50) in data set [1] (setting [7]) was 23 mg/kg; in data set [1] (setting [8]), 62.2 mg/kg; in data set [1] (24 hr, read-out: 24 hr ED50), above 200 mg/kg; in data set [2] (setting [9]), 1.7 mg/kg; in data set [2] (setting [10]), 3.3 mg/kg; in data set [2] (setting [11]), 11 mg/kg. The ED50 is 26.6 mg/kg in data set [5] and below 0.5 mg/kg in data set [3].

For the compound `CCCCCC(C)C(C)c1cc(OC(=O)CCCN2CCCCCC2)c2c(c1)OC(C)(C)C1=C2CC(C)CC1` (stereo not shown) [Present compound, 3-(3-methyl-2-octyl)-1-[4-(1-homopiperidine)butyryloxy]-6,6,9-trimethyl-7,8,9,10-tetrahydro-6H-dibenzo[b,d]pyran hydrochloride], the ED50 in data set [1] (setting [7]) was 60.6 mg/kg; in data set [1] (setting [8]), 7.4 mg/kg; in data set [1] (24 hr, read-out: 24 hr ED50), above 150 mg/kg; in data set [2] (setting [9]), 6.8 mg/kg; in data set [2] (setting [10]), 1.1 mg/kg; in data set [2] (setting [11]), 55.9 mg/kg. Moreover, the median effective dose (ED50) is 1 to 2 mg/kg in data set [2] (daily, general description, read-out: oral ED50 for blocking the tonic extensor component of audiogenic seizures); 37.2 mg/kg in data set [5]; 0.7 mg/kg in data set [3]; 7.8 mg/kg in data set [4] (setting [13]). Further, the “anti-convulsant activity” value in data set [1] (rat supramaximal electroshock test, hydrochloride) is reported as “potent anti-convulsant activity; also recorded: marked activity in preventing the hind limb tonic extension feature of supramaximal electroshock”; in data set [2] (mouse audiogenic seizure test, hydrochloride) it was “marked activity in antagonizing the hind limb tonic extensor component; also recorded: potent anti-convulsant activity”. Moreover, in data set [6], the “tolerance to side effects of sedation and irritability” value is “marked tolerance develops to the side effects of sedation and irritability within a few days of medication”. In data set [2] (mice, single oral dose, 24 hr post drug administration, hydrochloride, 1440 min), the “24 hr ED50 (50% of animals protected from hindlimb tonic extension)” value was determined as 55.5 mg/kg. The “tolerance to anticonvulsant activity” value is reported as “slight tolerance” in data set [5] (setting [12]); “increase in tolerance” in data set [5] (daily higher doses such as 5.0 and 10.0 mg./kg.). For the same compound, the “retention of anticonvulsant activity on repeated medication” value in data set [3] (audiogenic seizure test in mice) is given as “retained without any loss of the potency”. Moreover, in data set [3], the “activity in abolishing hind limb tonic extensor component” value was “marked activity in abolishing the hind limb tonic extensor component”. Further, the “antagonism of preconvulsive running” value in data set [4] was “preconvulsive running was not antagonized”.

Regarding `CCCCCC(C)C(C)c1cc(O)c2c(c1)OC(C)(C)C1=C2CC(C)CC1` (stereo not shown) [DMHP], the median effective dose (ED50) in data set [1] (setting [7]) was found to be 4.6 mg/kg; in data set [1] (setting [8]) it was 7.5 mg/kg; in data set [1] (24 hr, read-out: 24 hr ED50), 66.8 mg/kg; in data set [2] (setting [9]), 6.7 mg/kg; in data set [2] (setting [10]), 2.9 mg/kg; in data set [2] (setting [11]) it was 15.1 mg/kg. Also, the median effective dose (ED50) in data set [5] was 26.7 mg/kg; in data set [3] it was 1.6 mg/kg; in data set [4] (setting [13]) it was 6.7 mg/kg. The “activity over time / time of peak effect” value in data set [2] (mice) is given as “active over a prolonged period (24 hours)”. Moreover, the “tolerance to anticonvulsant activity” value in data set [5] (setting [12]) is “slight tolerance”.
